This data set is described as follows: Human HepG2 cell viability assay in 384 well format. Conditions: HepG2 cells, read-out: Inhibition. It counts as toxicity, cell-based. The arrangement: dose 125 nL, time 70.5 hour; cytotoxicity at 70.5 h: concentration not given beside the values.

Each structure is given as a SMILES string.

Regarding `CCCC(=O)N(CCN1CCOCC1)c1nc2c(OC)ccc(C)c2s1`, the cytotoxicity at 70.5 h was -7.03%.

With `Cc1c(C)n2c(SCC(=O)N3CCC(C)CC3)nnc2[nH]c1=O`, the cytotoxicity at 70.5 h is -4.99%.

Consider `Cc1c(C)n2c(SCC(=O)N3CCCC3)nnc2[nH]c1=O`, for which the cytotoxicity at 70.5 h is -7.34%.

With `O=C(Nc1cc(C(F)(F)F)ccc1Cl)c1ccc(N2CCCC2)nn1`, the cytotoxicity at 70.5 h was determined as 19.7%.

Consider `O=C(NCc1ccc2c(c1)OCO2)c1ccc(N2CCCCC2)nn1`, for which the cytotoxicity at 70.5 h is 12.8%.

For the molecule `O=C(Nc1ccc(Br)cc1F)c1ccc(N2CCOCC2)nn1`, the cytotoxicity at 70.5 h is -6.45%.

As for `COCCn1/c(=N/C(=O)C(C)C)sc2cc(Cl)ccc21`, the cytotoxicity at 70.5 h came out at 21.1%.

As to `CCSc1nc(N)c(NC(=O)c2ccc(C)cc2)c(=O)[nH]1`, the cytotoxicity at 70.5 h turned out to be 10.5%.

Turning to `O=C(O)c1ccc(N2CCC(Cc3ccccc3)CC2)nn1`, the cytotoxicity at 70.5 h is -1.14%.

Turning to `Cc1nc(-n2nc(-c3cccs3)cc2N)[nH]c(=O)c1C`, the cytotoxicity at 70.5 h is -4.91%.

On to `CCCc1cc(=O)[nH]c(-n2nc(-c3cccs3)cc2N)n1`, for which the cytotoxicity at 70.5 h is -12.8%.

In the case of `CC1CCN(C(=O)CSc2nc3c(cnn3CCO)c(=O)[nH]2)CC1`, the cytotoxicity at 70.5 h stood at 22.7%.

Consider `O=C(CSc1nc2c(cnn2CCO)c(=O)[nH]1)NC1CCCCC1`, for which the cytotoxicity at 70.5 h is 14.1%.

For the molecule `CC(C)NC(=O)CSc1nc2c(cnn2CCO)c(=O)[nH]1`, the cytotoxicity at 70.5 h was determined as 26.7%.

`NC(=O)Cn1c(CO)cnc1SCC(=O)NCc1ccccc1Cl`: the cytotoxicity at 70.5 h was 15.7%.

Take `CCS(=O)(=O)Nc1ccc2c(c1)OCC(C)(C)C(=O)N2C`: the cytotoxicity at 70.5 h amounted to 19%.

For the molecule `O=C(c1ccccc1F)N1CCN(c2ccc(-n3cccn3)nn2)CC1`, the cytotoxicity at 70.5 h was 0.31%.

For the molecule `CCc1cc(=O)[nH]c2nnc(SCC(=O)N3CCC(C)CC3)n12`, the cytotoxicity at 70.5 h came to 19.7%.

As for `Cc1cc(C(=O)N2CCN(c3nc4c(C)cccc4s3)CC2)no1`, the cytotoxicity at 70.5 h was 9.18%.

With `COc1ccc(CNc2c(C)cnc3c2c(=O)n(C)c(=O)n3C)cc1`, the cytotoxicity at 70.5 h was determined as 7.6%.

With `CCc1cnc2c(c1Nc1ccccc1OC)c(=O)n(C)c(=O)n2C`, the cytotoxicity at 70.5 h stood at 5.02%.

In the case of `CCc1cnc2c(c1Nc1cccc(OC)c1)c(=O)n(C)c(=O)n2C`, the cytotoxicity at 70.5 h came to 1.18%.

Take `CCc1cnc2c(c1Nc1ccc(C)c(F)c1)c(=O)n(C)c(=O)n2C`: the cytotoxicity at 70.5 h was -8.17%.

`CC(C)c1nn(CC(=O)N2CCCC2)c(=O)c2c1cnn2C(C)(C)C`: the cytotoxicity at 70.5 h worked out at 14.2%.

For `CCN(CC)C(=O)Cn1nc(C(C)C)c2cnn(C(C)(C)C)c2c1=O`, the cytotoxicity at 70.5 h was 13.7%.

On to `COCCNC(=O)Cn1cc(OCc2ccc(F)cc2)c(=O)cc1C`, for which the cytotoxicity at 70.5 h was 9.56%.

As for `COCCNC(=O)Cn1cc(OCc2ccccc2F)c(=O)cc1CO`, the cytotoxicity at 70.5 h was 45.6%.

Consider `Cc1cnc2n(c1=O)C(CC(=O)NCc1ccc(F)cc1)CS2` (centres undefined), for which the cytotoxicity at 70.5 h is -6.08%.

For `Cc1cnc2n(c1=O)C(CC(=O)NCc1cccs1)CS2` (centres undefined), the cytotoxicity at 70.5 h was determined as 0.951%.

On to `COc1cccc(CNC(=O)CC2CSc3nc(C)c(C)c(=O)n32)c1` (centres undefined), for which the cytotoxicity at 70.5 h was -2.74%.

Consider `CCCc1cc(=O)[nH]c2nnc(SCC(=O)OC)n12`, for which the cytotoxicity at 70.5 h is -8.96%.

Turning to `CCCc1cc(=O)[nH]c2nnc(SCC(=O)OCC)n12`, the cytotoxicity at 70.5 h was -9.96%.

In the case of `Cc1ccccc1-n1ncc2c(=O)n(CCN3CCCCC3)cnc21`, the cytotoxicity at 70.5 h came out at 21%.

As to `CCc1cc(=O)[nH]c(SCc2ccccn2)n1`, the cytotoxicity at 70.5 h was -5.73%.

Regarding `Cc1cc(C)nc(NC(=O)NCCCSc2nncn2C)n1`, the cytotoxicity at 70.5 h is -8.45%.

As for `Cc1cc(NC(=O)NCCCSc2nncn2C)no1`, the cytotoxicity at 70.5 h was -11.7%.

In the case of `COc1cn(CC(N)=O)c(CSc2nc(C)cc(C)n2)cc1=O`, the cytotoxicity at 70.5 h came out at 59.2%.

Turning to `O=c1nc(SCc2cccnc2)c2c(n1CCO)CCCC2`, the cytotoxicity at 70.5 h was -11%.

For the molecule `O=S(=O)(c1cccs1)N1CCC(c2nc(-c3cccs3)no2)CC1`, the cytotoxicity at 70.5 h worked out at 1.6%.

In the case of `CCCN1CCc2nc(SCc3c(C)cc(C)cc3C)[nH]c(=O)c2C1`, the cytotoxicity at 70.5 h amounted to 4.68%.

As for `Cc1nn(CCNS(=O)(=O)c2ccccc2)c(C)c1Cl`, the cytotoxicity at 70.5 h is -7.1%.

Take `CC(=O)c1c(C)nn(CC(=O)Nc2ccc(F)cc2)c1C`: the cytotoxicity at 70.5 h is 30%.

For the molecule `CCCS(=O)(=O)c1ccc(N2CCN(Cc3ccccc3)CC2)nn1`, the cytotoxicity at 70.5 h was -8.4%.

For `CCN(CC)c1nc2ccsc2c(=O)n1CCC(=O)NC1CCCC1`, the cytotoxicity at 70.5 h is -6.51%.

As to `Cc1ccc(NC(=O)Cn2ncc(SCC(N)=O)c(Cl)c2=O)c(F)c1`, the cytotoxicity at 70.5 h was -17.2%.

For `CC(C)OC(=O)CN1N=C(C(=O)N2CCCC2)S(=O)(=O)c2ccccc21`, the cytotoxicity at 70.5 h came out at 1.63%.

Turning to `CCOc1ccc(CNC(=O)c2cnc(OC)nc2)cc1`, the cytotoxicity at 70.5 h is -2.49%.

For `CC(C)CCn1nc2ccc(S(=O)(=O)N3CCOCC3)cn2c1=O`, the cytotoxicity at 70.5 h was -7.21%.

With `O=c1c(S(=O)(=O)N2CCCC2)cccn1Cc1ccc(F)cc1Cl`, the cytotoxicity at 70.5 h came to 31.5%.

Take `CC(C)(C)OC(=O)Cn1cccc(S(=O)(=O)N2CCCCCC2)c1=O`: the cytotoxicity at 70.5 h was -12.4%.

In the case of `O=c1[nH]c2c(-c3ccccn3)nsc2c(=O)n1CC1CC1`, the cytotoxicity at 70.5 h is -14.6%.

Turning to `CC1CCN(c2cc(-n3cnc(C(=O)N4CCSCC4)c3)ncn2)CC1`, the cytotoxicity at 70.5 h is -13.5%.

For `CC1CCN(C(=O)c2cn(-c3cc(N4CCOCC4)ncn3)cn2)CC1`, the cytotoxicity at 70.5 h is -14%.

For `COc1cccc(C(O)CN2CCN(c3cccc(C)c3)CC2)c1` (centres undefined), the cytotoxicity at 70.5 h amounted to 0.851%.

As to `Cc1ccccc1-c1csc2c(=O)[nH]c(N3CCCC(C(=O)O)C3)nc12` (centres undefined), the cytotoxicity at 70.5 h amounted to 14.6%.

`O=C(Cc1cc(-c2ccc3c(c2)OCO3)on1)NC1CCCC1`: the cytotoxicity at 70.5 h was -8.33%.

Regarding `Cc1cc(C(=O)N2CCN(c3nc4c(C(C)C)cccc4s3)CC2)on1`, the cytotoxicity at 70.5 h was 32%.

`CCOc1nn(CC)cc1-c1nnc(SCC)n1C`: the cytotoxicity at 70.5 h is -12.3%.

Turning to `CCOCCSc1nnc(-c2cn(CC)nc2OCC)n1C`, the cytotoxicity at 70.5 h was -7.58%.

On to `CCn1nnc2c1CCN(C(=O)c1ccc3c(c1)OCO3)C2COC` (centres undefined), for which the cytotoxicity at 70.5 h came to 10.7%.

Turning to `CN(C)C(=O)c1ccn(-c2ccc3ccccn23)n1`, the cytotoxicity at 70.5 h was -4.81%.

In the case of `COCCN1CCC2(CCCN(c3ncc(F)cn3)C2)C1` (centres undefined), the cytotoxicity at 70.5 h is -3.02%.

Take `CC(C)CNC(=O)N1CCOC2(CCNCC2)C1`: the cytotoxicity at 70.5 h was -3.81%.

In the case of `O=c1cc(CN2CCCC2)nc2n1CCCN(Cc1ccco1)C2`, the cytotoxicity at 70.5 h is -2.44%.

As to `CC(C)(C)OC(=O)N1CCC(C(=O)NCCNc2ncccn2)CC1`, the cytotoxicity at 70.5 h is -7.43%.

Take `c1csc(-c2noc(CN3CCc4cncnc4C3)n2)c1`: the cytotoxicity at 70.5 h is -8.24%.

Take `Cc1ccc(NC2CCN(C(=O)CCc3ccccc3)CC2)nn1`: the cytotoxicity at 70.5 h is -6.29%.

For the molecule `O=C(CCc1ccco1)N1CCC(Nc2cccnn2)CC1`, the cytotoxicity at 70.5 h was 1.07%.

In the case of `Cc1ccc(NC2CCN(C(=O)CCc3cscn3)CC2)nn1`, the cytotoxicity at 70.5 h stood at 11.4%.

For `Cc1ccc(NC2CCN(C(=O)CCNc3ncccn3)CC2)nn1`, the cytotoxicity at 70.5 h is -9.43%.

Regarding `CC1CN(CC(=O)Nc2ccncc2)CCN1c1nccs1` (centres undefined), the cytotoxicity at 70.5 h is -2.52%.

Take `CN1CCOC(CN(C(=O)CCc2cnn(C)c2)c2nccs2)C1` (centres undefined): the cytotoxicity at 70.5 h is -5.55%.

As for `O=C(NCCNc1ncccn1)C1CCN(C(=O)N2CCCC2)CC1`, the cytotoxicity at 70.5 h was -12.3%.

As for `CC(C)c1noc(CN2CCN(C(=O)c3cc(Cl)ccc3F)CC2)n1`, the cytotoxicity at 70.5 h was -8.7%.

Consider `Cc1nn(C)c(C)c1NC(=O)CN1CCN(c2nccs2)C(C)C1` (centres undefined), for which the cytotoxicity at 70.5 h is -6.35%.

On to `Cc1ccc(NC2CCN(C(=O)c3ccco3)CC2)nn1`, for which the cytotoxicity at 70.5 h was determined as 11.9%.

With `Cc1nn(-c2ccccc2)cc1C(=O)N1CCCC1c1cnn(C)c1` (centres undefined), the cytotoxicity at 70.5 h is -6.59%.

Take `c1ccc(-c2noc(CCCN3CCCC3Cn3cncn3)n2)cc1` (centres undefined): the cytotoxicity at 70.5 h was -13.4%.

As for `COc1cccc2cc(CNCc3ccnc(N(C)C)c3)oc12`, the cytotoxicity at 70.5 h amounted to 7.6%.

For the molecule `CC(c1nc(C(C)(C)C)no1)N1CCN(Cc2ccc(C#N)cc2)CC1` (centres undefined), the cytotoxicity at 70.5 h is -1.19%.

As to `Cn1cnc(S(=O)(=O)NCCCN2CCCC2=O)c1Cl`, the cytotoxicity at 70.5 h was -2.39%.

For `Cn1cnc(S(=O)(=O)NCCCN2CCCCCC2=O)c1Cl`, the cytotoxicity at 70.5 h was 0.779%.

Regarding `COc1ccc(OC)c(CNCc2ccnc(N3CCOCC3)c2)c1`, the cytotoxicity at 70.5 h is -4.43%.

With `Cn1ncc2c(N3CCCN(C(=O)c4ccsc4)CC3)ncnc21`, the cytotoxicity at 70.5 h is -1.19%.

For the molecule `Cn1ccc(C(=O)N2CCN(c3ccccn3)CC2)cc1=O`, the cytotoxicity at 70.5 h is -1.81%.

On to `CCCC(=O)N(CCCN1CCOCC1)c1nc2c(F)cccc2s1`, for which the cytotoxicity at 70.5 h was -1.9%.

With `CCCC(=O)N(CCCN1CCOCC1)c1nc2c(C)c(C)ccc2s1`, the cytotoxicity at 70.5 h is -14.7%.

For `O=C(CSc1nnc(N2CCNCC2)s1)Nc1ccccc1`, the cytotoxicity at 70.5 h was 27.6%.

Consider `CN(C)C(=O)CN1C(=O)CO[C@@H]2CN(c3ccccn3)C[C@H]21`, for which the cytotoxicity at 70.5 h is -7.96%.

For the molecule `CC(C)NCC1OCCc2cn(C)nc21` (centres undefined), the cytotoxicity at 70.5 h is -6.64%.

With `CCn1ncc2c1C(COC)N(C(=O)c1ccc3c(c1)OCO3)CC2` (centres undefined), the cytotoxicity at 70.5 h is -5.04%.

In the case of `CNC(=O)CN1CCO[C@H]2CN(C(=O)C3CC3)C[C@H]21`, the cytotoxicity at 70.5 h is -2.66%.

In the case of `COCCN1CCC2(C1)CN(c1ncccn1)C2`, the cytotoxicity at 70.5 h was -0.0538%.

As for `Cc1ccc(NC(=O)c2nc3c(s2)CCCN3C(=O)C2CC2)cn1`, the cytotoxicity at 70.5 h stood at 3.07%.

Take `COCCN1CCO[C@@H]2CN(C(=O)Cc3ccc(F)cc3)CC[C@@H]2C1`: the cytotoxicity at 70.5 h came to 4.68%.

Regarding `N#Cc1cccc(CN2CC[C@@H]3CO[C@@H](CN4CCCC4)[C@@H]3C2)c1`, the cytotoxicity at 70.5 h was -4.24%.

On to `CN(C)CCOCc1nnc2n1CCN(Cc1ccco1)C2`, for which the cytotoxicity at 70.5 h is -1.46%.

For `CNC(=O)CN1CCO[C@H]2CN(CC3CC3)C[C@H]21`, the cytotoxicity at 70.5 h was -2.3%.

On to `Cc1cc(C)c(N(CC(O)CNCc2ccco2)S(C)(=O)=O)c(C)c1` (centres undefined), for which the cytotoxicity at 70.5 h is -7.18%.

Source of the values: ChEMBL document CHEMBL3507680, “University of Dundee, Gates Library screen for HepG2 cell viability”.
